Converted amounts (≈) assume the structure as drawn. Where two headings read alike, the source gives them in different places. Bridge positions count the residues as written; N and C are the ends. Ends that are not written are not given here. Peptide text beside a SMILES is read from it.
Columns and labels:
chymotrypsin [1] = target: T1, chymotrypsin (Bos taurus, UniProt P00766); parameters: method as in 2 sources, ref 24 = [24]; PMID 28356487; doi:10.1042/BSR20160593; 24. Wu Y. Long Q. Xu Y. Guo S. Chen T. Wang L. Zhou M. Zhang Y. Shaw C. Walker B. A structural and functional analogue of a Bowman–Birk-type protease inhibitor from Odorrana schmackeri Biosci. Rep. 20 ||| ref 32 = [32]; PMID 31337113; doi:10.3390/biom9070280; 32. Miao Y. Chen G. Xi X. Ma C. Wang L. Burrows J. Duan J. Zhou M. Chen T. Discovery and Rational Design of a Novel Bowman-Birk Related Protease Inhibitor Biomolecules 2019 9 280 10.3390/biom9070280 3; key: N.I.: there was no inhibitory activity; conditions: cited from earlier work
tryptase [2] = target: T2, tryptase (Homo sapiens, UniProt Q15661); conditions: cited from earlier work; for tryptase inhibitory activity: result in words
T2 construct: purchased Calbiochem, Nottingham, UK
From the text: Therefore, the emergence of a novel tryptase inhibitor would be an asset in the treatment of some clinical diseases. […] Some publications believe that protease inhibitors cannot work effectively when it comes t ...

MRSA = assay: Checkerboard assay, peptide with Gentamicin; type: cell-based, Staphylococcus aureus; conditions: for MIC: Staphylococcus aureus, 18 h
Method: Then, the microorganism cultures (1 × 10^6 cfu/mL) were inoculated into the plate wells and incubated at 37 °C for 18 h. The optical densities of the cultures were measured using an ELISA plate reader (Biotech Minneapolis, MN, USA). The lowest cumulative fractional inhibitory concentration (ΣFIC) was calculated with the following equation:(1) ΣFIC=Compound A treated in combination/Compound A, test in alone+Compound B treated in combination/Compound B, test in alone
ΣFIC ≤ 0.5 indicates synergy; 0.5 < Σ FIC ≤ 4 indicates an additive effect; and Σ FIC > 4 represents an antagonistic effect.

trypsin [3] = target: T3, trypsin (Bos taurus, UniProt P00760); conditions: cited from earlier work
T3 construct: gene PRSS1
T3 sequence (P00760 24-246): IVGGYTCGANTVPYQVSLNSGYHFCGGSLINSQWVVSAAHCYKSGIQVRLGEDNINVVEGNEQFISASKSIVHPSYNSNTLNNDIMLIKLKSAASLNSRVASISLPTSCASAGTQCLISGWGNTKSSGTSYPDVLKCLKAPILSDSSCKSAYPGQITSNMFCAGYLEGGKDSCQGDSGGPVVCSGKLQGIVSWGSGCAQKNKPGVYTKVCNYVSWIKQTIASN
From the text: Amino acid residues at P5′ are shaded. | column: Trypsin Inhibition Ki (nM) || In previous studies, extensive studies have been made to reveal the role played by each residue within the TIL in overall enzyme inhibitory activity. However, factors outside this conserved disulphide loop, which may affect trypsin inhibition activity, have rarely been studied. In 2012, Wang et al. discovered the peptide, HJTI, and designed one molecular variant to study the role that cationicity played in trypsin inhibitory potency. They believed that structural features, especially for amino acid residues lying outside the TIL, were crucial in modulating the effectiveness of trypsin inhibito ...

trypsin [4] = target: T3, trypsin; assay: Trypsin inhibition assay; type: biochemical; conditions: substrate Phe-Pro-Arg-AMC
Method: (§1) Trypsin and chymotrypsin inhibition assays were performed as previously described. The substrate of trypsin and chymotrypsin were Phe-Pro-Arg-AMC and Succinyl-Ala-Ala-Pro-Phe-NHMec, respectively, and obtained from Bachem, Merseyside, UK. In the tryptase inhibition assay, peptide samples were first dissolved in tryptase assay buffer pH 7.6, containing 0.05 M Tris, 0.15 M NaCl and 0.2% (w/v) PEG 6000 (final volume 210 μL) to obtain different concentrations of 0.5, 1, 2 and 4 mM and then added to the wells of a black 96-well plate containing (Boc-Phe-Ser-Arg-NHMec, obtained from Bachem, Merseyside, UK) (50 μM). Before measurement, tryptase (2.5 μL from 1 mg/mL stock solution, Calbiochem, Nottingham, UK) was added to each well. The rate of hydrolysis of substrate was monitored continuously at 37 °C and 460 nm with a Fluostar Optima plate reader (BMG Labtech GmbH, Offenburg, Germany)

tryptase [5] = target: T2, tryptase; assay: Tryptase inhibition assay; type: biochemical; conditions: substrate Boc-Phe-Ser-Arg-NHMec 50 μM; pH 7.6, 0.05 M Tris, 0.15 M NaCl, 0.2% PEG 6000; 37 °C; 460 nm
Method: as §1

[6] = test system: Staphylococcus aureus (NCTC 10788); conditions: doubling-dilution method, up to 512 µM
[7] = test system: Methicillin-resistant Staphylococcus aureus (MRSA) (NCTC 12493); conditions: doubling-dilution method, up to 512 µM
[8] = test system: Enterococcus faecalis (NCTC 12697); conditions: doubling-dilution method, up to 512 µM
[9] = test system: Escherichia coli (NCTC 10418); conditions: doubling-dilution method, up to 512 µM
[10] = test system: Pseudomonas aeruginosa (ATTC 27853); conditions: doubling-dilution method, up to 512 µM
[11] = test system: Klebsiella pneumoniae (ATCC43816); conditions: doubling-dilution method, up to 512 µM
[12] = test system: Candida albicans (NCPF 1467); conditions: doubling-dilution method, up to 512 µM
[13] = test system: HMEC-1 cells (human microvascular endothelial cell line); conditions: MTT, 24 h, 10^−9 to 10^−4 M; result in words
Method: (§2) Cells (5 × 10^3 cells/mL) were seeded into 96-well plates with FBS-containing fresh medium for 24 h. After that, cells were treated with corresponding serum-free culture medium for 12 h. […] After exposure for 6 h, all liquid was removed and 100 µL of DMSO was added. Finally, the absorbance of samples at 570 nm was determined using an ELISA plate reader (Biotech, Minneapolis, MN, USA).

[14] = test system: HaCaT cells (human keratinocyte cell line); conditions: MTT, 24 h, 10^−9 to 10^−4 M; result in words
Method: as §2

human normal cell lines = conditions: MTT, 24 h, highest concentration tested 100 µM; result in words
Method: as §2

chymotrypsin [15] = target: T1, chymotrypsin; assay: Chymotrypsin inhibition assay; type: biochemical; parameters: key: N.I.: there was no inhibitory activity; conditions: substrate Succinyl-Ala-Ala-Pro-Phe-NHMec
Method: as §1

[16] = result in words; cited from earlier work
From the text: (§3) Therefore, ranacyclins firstly approach to the membrane surface through hydrophobic interaction and then, at sites where peptide concentrations reach a threshold, insert into the hydrophobic core of the membrane bilaye ...

bacteria = conditions: result in words; cited from earlier work
From the text: as §3

T2 sequence (Q15661 31-275): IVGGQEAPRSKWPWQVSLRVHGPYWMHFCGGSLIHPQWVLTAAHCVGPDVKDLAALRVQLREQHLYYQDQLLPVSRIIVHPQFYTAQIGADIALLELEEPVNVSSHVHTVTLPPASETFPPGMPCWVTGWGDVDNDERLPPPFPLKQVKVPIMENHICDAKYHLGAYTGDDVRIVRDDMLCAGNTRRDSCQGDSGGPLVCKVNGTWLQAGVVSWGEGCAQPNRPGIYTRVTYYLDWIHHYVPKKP

Molecule: AALKGCWTKSIPPKPCF-NH2 (disulfide 6-16 (inferred)) [OSTI]
- Ki(µM) of Chymotrypsin (chymotrypsin [1]): N.I.
- tryptase inhibitory activity (tryptase [2]): obvious tryptase inhibitory activity

Molecule: CNC(C)C1CCC(N)C(OC2C(N)CC(N)C(OC3OCC(C)(O)C(NC)C3O)C2O)O1 (stereo not drawn) [Gentamicin]
- MIC (MRSA; read-out: MIC of Gentamicin against MRSA, Gentamicin alone, 37 °C, 18 h): 2 µM
- MIC (MRSA; read-out: MIC of Gentamicin against MRSA, in the presence of RNF and its analogues, 37 °C, 18 h): 1 µM

Molecule: AALKGCWTKSIPPKPCF-NH2 (disulfide) (disulfide 6-16; N-terminus assumed; SMILES CC[C@H](C)[C@@H]1NC(=O)[C@H](CO)NC(=O)[C@H](CCCCN)NC(=O)[C@H]([C@@H](C)O)NC(=O)[C@H](Cc2c[nH]c3ccccc23)NC(=O)[C@@H](NC(=O)CNC(=O)[C@H](CCCCN)NC(=O)[C@H](CC(C)C)NC(=O)[C@H](C)NC(=O)[C@H](C)N)CSSC[C@@H](C(=O)N[C@@H](Cc2ccccc2)C(N)=O)NC(=O)[C@@H]2CCCN2C(=O)[C@H](CCCCN)NC(=O)[C@@H]2CCCN2C(=O)[C@@H]2CCCN2C1=O) [OSTI]
- Ki (trypsin [3]): 0.0003 µM
- Ki (tryptase [2]): 2.5 µM

Molecule: C[C@H](NC(=O)CN)C(=O)N1CCC[C@H]1C(=O)N[C@@H](CCCNC(=N)N)C(=O)NCC(=O)N[C@H]1CSSC[C@@H](C(=O)N[C@@H](Cc2ccccc2)C(=O)O)NC(=O)[C@@H]2CCCN2C(=O)[C@H](CCC(N)=O)NC(=O)[C@@H]2CCCN2C(=O)[C@@H]2CCCN2C(=O)[C@H](Cc2ccc(O)cc2)NC(=O)[C@H](CO)NC(=O)[C@H](CCCCN)NC(=O)[C@H]([C@@H](C)O)NC(=O)[C@H](Cc2c[nH]c3ccccc23)NC1=O [RNF1] (H-GAPRGCWTKSYPPQPCF-OH; disulfide 6-16)
- Ki (trypsin [4]): 1.3 µM
- Ki (tryptase [5]): 9.06 µM
- MBC S. aureus [6]: > 512 µM
- MIC S. aureus [6]: > 512 µM
- MBC MRSA [7]: > 512 µM
- MIC MRSA [7]: > 512 µM
- MBC E. faecalis [8]: > 512 µM
- MIC E. faecalis [8]: > 512 µM
- MBC E. coli [9]: > 512 µM
- MIC E. coli [9]: > 512 µM
- MBC P. aeruginosa [10]: > 512 µM
- MIC P. aeruginosa [10]: > 512 µM
- MBC K. pneumoniae [11]: > 512 µM
- MIC K. pneumoniae [11]: > 512 µM
- MBC C. albicans [12]: > 512 µM
- MIC C. albicans [12]: > 512 µM

Molecule: ALRGCWTKSIPPKPCP-NH2 (disulfide 5-15 (inferred)) [PPF-BBI]
- Ki(µM) of Chymotrypsin (chymotrypsin [1]): N.I.
- tryptase inhibitory activity (tryptase [2]): obvious tryptase inhibitory activity

Molecule: C[C@H](NC(=O)CN)C(=O)N1CCC[C@H]1C(=O)N[C@@H](CCCNC(=N)N)C(=O)NCC(=O)N[C@H]1CSSC[C@@H](C(=O)N[C@@H](Cc2ccccc2)C(N)=O)NC(=O)[C@@H]2CCCN2C(=O)[C@H](CCC(N)=O)NC(=O)[C@@H]2CCCN2C(=O)[C@@H]2CCCN2C(=O)[C@H](Cc2ccc(O)cc2)NC(=O)[C@H](CO)NC(=O)[C@H](CCCCN)NC(=O)[C@H]([C@@H](C)O)NC(=O)[C@H](Cc2c[nH]c3ccccc23)NC1=O [RNF] (H-GAPRGCWTKSYPPQPCF-NH2; disulfide 6-16)
- Ki (trypsin [4]): 0.447 µM
- Ki (tryptase [5]): 6.77 µM
- cytotoxicity on HMEC-1 [13]: negligible cytotoxicity
- cytotoxicity on HaCaT [14]: negligible cytotoxicity
- cytotoxicity (human normal cell lines): negligible direct cytotoxicity
- MBC S. aureus [6]: > 512 µM
- MIC S. aureus [6]: 512 µM (≈ 969 µg/mL)
- MBC MRSA [7]: > 512 µM
- MIC MRSA [7]: > 512 µM
- MBC E. faecalis [8]: > 512 µM
- MIC E. faecalis [8]: > 512 µM
- MBC E. coli [9]: > 512 µM
- MIC E. coli [9]: > 512 µM
- MBC P. aeruginosa [10]: > 512 µM
- MIC P. aeruginosa [10]: > 512 µM
- MBC K. pneumoniae [11]: > 512 µM
- MIC K. pneumoniae [11]: > 512 µM
- MBC C. albicans [12]: > 512 µM
- MIC C. albicans [12]: > 512 µM

Molecule: GAPKGCWTKSYPPQPCS-NH2 (disulfide) (disulfide 6-16; N-terminus assumed; SMILES C[C@H](NC(=O)CN)C(=O)N1CCC[C@H]1C(=O)N[C@@H](CCCCN)C(=O)NCC(=O)N[C@H]1CSSC[C@@H](C(=O)N[C@@H](CO)C(N)=O)NC(=O)[C@@H]2CCCN2C(=O)[C@H](CCC(N)=O)NC(=O)[C@@H]2CCCN2C(=O)[C@@H]2CCCN2C(=O)[C@H](Cc2ccc(O)cc2)NC(=O)[C@H](CO)NC(=O)[C@H](CCCCN)NC(=O)[C@H]([C@@H](C)O)NC(=O)[C@H](Cc2c[nH]c3ccccc23)NC1=O) [HJTI, Odorrana hejiangensis]
- Ki (trypsin [3]): 0.388 µM

Molecule: GALRGCWTKSYPPKPCK-NH2 (disulfide) (disulfide 6-16) [Ranacyclin-T]
- Ki (trypsin [3]): 0.116 µM

Molecule: CC(C)C[C@H](NC(=O)[C@H](C)NC(=O)CN)C(=O)N[C@@H](CCCNC(=N)N)C(=O)NCC(=O)N[C@H]1CSSC[C@@H](C(=O)N[C@@H](Cc2ccccc2)C(N)=O)NC(=O)[C@@H]2CCCN2C(=O)[C@H](CCC(N)=O)NC(=O)[C@@H]2CCCN2C(=O)[C@@H]2CCCN2C(=O)[C@H](Cc2ccc(O)cc2)NC(=O)[C@H](CO)NC(=O)[C@H](CCCCN)NC(=O)[C@H]([C@@H](C)O)NC(=O)[C@H](Cc2c[nH]c3ccccc23)NC1=O [RNF3L] (H-GALRGCWTKSYPPQPCF-NH2; disulfide 6-16; N-terminus assumed)
- Ki(µM) of Chymotrypsin (chymotrypsin [15]): N.I.
- effect of the combination with Gentamicin (MRSA; peptide with Gentamicin, class by ΣFIC): additive effect (0.5 < Σ FIC ≤ 4 indicates an additive effect)

Molecule: GALRGCWTKSYPPKPCK-NH2 (disulfide 6-16 (inferred)) [Ranacyclin-T]
- secondary structure [16]: beta-sheet structure
- antimicrobial activity with respect to RNF (bacteria): relatively stronger antimicrobial activity

Molecule: ALRGCWTKSIPPKPCP-NH2 (disulfide) (disulfide 5-15; N-terminus assumed; SMILES CC[C@H](C)[C@@H]1NC(=O)[C@H](CO)NC(=O)[C@H](CCCCN)NC(=O)[C@H]([C@@H](C)O)NC(=O)[C@H](Cc2c[nH]c3ccccc23)NC(=O)[C@@H](NC(=O)CNC(=O)[C@H](CCCNC(=N)N)NC(=O)[C@H](CC(C)C)NC(=O)[C@H](C)N)CSSC[C@@H](C(=O)N2CCC[C@H]2C(N)=O)NC(=O)[C@@H]2CCCN2C(=O)[C@H](CCCCN)NC(=O)[C@@H]2CCCN2C(=O)[C@@H]2CCCN2C1=O) [PPF-BBI]
- Ki (trypsin [3]): 0.17 µM
- Ki (tryptase [2]): 30.7 µM
